These results are taken from publication PMC11672724, “Antiparasitic Activities of Acyl Hydrazones from Cinnamaldehydes and Structurally Related Fragrances” (Antibiotics, 2024).

The subject of data set [1] is L. major amastigotes. Description: Leishmania major amastigotes in peritoneal macrophages (percentage of infected macrophages, 72 h). Particulars: Macrophage, IC50 ± SD. The data set is classed as cell-based. As for the experimental part:
(§1) Promastigotes of L. major were obtained from a patient (February 2016) and cultured at 26 °C in Schneider’s Drosophila medium (Invitrogen, Carlsbad, CA, USA) supplemented with 10% heat-inactivated fetal bovine serum (FBS, Invitrogen, USA) and antibiotics, with weekly transfers in a tissue culture flask. Promastigotes were cryopreserved in liquid nitrogen at a concentration of 3 × 10^6 parasites/mL. Virulent L. major parasites were maintained by serial passage in female BALB/c mice, achieved by injecting hind footpads with 1 × 10^6 stationary-phase promastigotes. Amastigotes were isolated from the mice after 8 weeks, then converted to promastigotes by cultivation at 26 °C in Schneider’s medium containing 10% FBS and antibiotics. Amastigote-derived promastigotes, which underwent several in vitro passages, were used for the infection studies. BALB/c mice (both male and female) were provided by the Pharmaceutical College, King Saud University, Kingdom of Saudi Arabia, and housed in specific pathogen-free conditions following the ethical guidelines of the Qassim University Research Ethics Committee (permission number: 20-03-20).
Activity against amastigotes in macrophages was evaluated using peritoneal macrophages, which were harvested from 6–8-week-old BALB/c mice of different sex, and plated at 5 × 10^4 cells/well in 96-well plates containing phenol-red-free RPMI 1640 medium with 10% FBS. After 4 h at 37 °C and 5% CO2 to promote adhesion, cells were washed with PBS, and 200 μL of an L. major promastigote solution (10 promastigotes per macrophage) was added. Plates were incubated for 24 h at 37 °C in a 5% CO2 environment to allow infection and amastigote differentiation. Infected cells were then washed with PBS and overlaid with RPMI 1640 medium containing the test compounds at the same concentrations as applied for the experiments with promastigotes, followed by incubation at 37 °C and 5% CO2 for 72 h. […] IC50 values were calculated from three independent experiments.

Data set [2] concerns L. major promastigotes. The data set is described as follows: Leishmania major promastigote assay (MTT, 72 h). The format is cell-based. Particulars: for IC50: 72 h, IC50 ± SD, MTT; for SI (promastigotes) = selectivity index (macrophages/L. major promastigotes): ratio IC50 macrophages / IC50 promastigotes. As for the experimental part: as §1
L. major promastigotes in the logarithmic phase were cultured in phenol-red-free RPMI 1640 medium (Invitrogen, USA) with 10% FBS in 96-well plates at 10^6 cells/mL (200 μL/well, counted with a hemocytometer). Test compounds were added at final concentrations of 50, 25, 12.5, 6.25, 3.13, 1.65, and 0.75 μg/mL. […] After incubation at 26 °C for 72 h, viable promastigotes were counted using an MTT colorimetric assay. The formed formazan was dissolved in a detergent and the absorbance was measured at 570 nm using an ELISA reader. IC50 values were derived from three independent experiments.

The test system of data set [3] is Vero monkey kidney cells. The data set is described as follows: Vero cell cytotoxicity (MTT assay, 72 h). The format is cell-based. Particulars: Primates, IC50 ± SD. On the procedure: To assess the test compounds’ cytotoxicity, MTT assays were performed. The Vero cells and macrophages were cultivated for 24 h at 37 °C in RPMI 1640 media with 10% FBS and 5% CO2 in 96-well plates (5 × 10^3 cells/well/200 μL). Following a washing step with PBS, the cells were treated with test compounds at different concentrations (50, 25, 12.5, 6.25, 3.13, 1.65, and 0.75 μg /mL) in 10% FBS medium for 72 h. Negative control cells were only given media with 2% FBS and 1% DMSO. The cells were cultured for 4 h after the supernatant was disposed of, and 50 μL of RPMI 1640 media containing 14 μL MTT (5 mg/mL) was added. After removing the supernatant once again, 150 μL of DMSO was added. IC50 values were determined from three independent experiments.

The subject of data set [4] is macrophages. The data set is described as follows: Macrophage cytotoxicity (MTT assay, 72 h). The note with it: Mus musculus, IC50 ± SD. The format is cell-based, BALB/c mice. As for the experimental part: Plates were incubated for 24 h at 37 °C in a 5% CO2 environment to allow infection and amastigote differentiation. Infected cells were then washed with PBS and overlaid with RPMI 1640 medium containing the test compounds at the same concentrations as applied for the experiments with promastigotes, followed by incubation at 37 °C and 5% CO2 for 72 h. […] The percentage of infected macrophages was determined microscopically after fixation, Giemsa staining, and medium removal. IC50 values were calculated from three independent experiments. To assess the test compounds’ cytotoxicity, MTT assays were performed. […] Negative control cells were only given media with 2% FBS and 1% DMSO. The cells were cultured for 4 h after the supernatant was disposed of, and 50 μL of RPMI 1640 media containing 14 μL MTT (5 mg/mL) was added. After removing the supernatant once again, 150 μL of DMSO was added. IC50 values were determined from three independent experiments.
A general note: Formazan colour is commonly taken as a measure of viable cells.

For data set [5], the system named is T. gondii RH strain tachyzoites. Description: Toxoplasma gondii cells drug testing assay (infection index in Vero cells, 72 h). The data set is classed as cell-based. Particulars: for IC50: Toxoplasma gondii, Vero, IC50 ± SD, three independent experiments, 72 h; for SI = selectivity index (Vero/T. gondii): ratio IC50 Vero / IC50 T. gondii. On the procedure: Cells of the Vero cell line (ATCC® CCL81™, Manassas, VA, USA) were used to cultivate T. gondii RH strain tachyzoites. Vero cells were maintained in complete RPMI 1640 medium (Thermo Fisher Scientific, Waltham, MA, USA). For cell cultivation, 96-well plates were prepared with 5 × 10^3 cells per well in 200 μL of RPMI 1640 medium, then incubated at 37 °C and 5% CO2 for 24 h. The medium was then removed, and cells were washed with phosphate-buffered saline (PBS). Next, RPMI 1640 medium with 2% FBS and parasites at a 5:1 parasite-to-cell ratio were added. After a 5 h incubation at 37 °C and 5% CO2, cells were washed with PBS and subjected to further treatments. […] After incubation at 37 °C and 5% CO2 for 72 h, cells were washed with PBS, fixed in 10% formalin, and stained with 1% toluidine blue. An inverted photomicroscope was used to assess cell infection and to determine the infection index (number of infected cells out of 200 counted cells). The inhibition percentage was calculated as follows:Inhibition (%) = [(I Control − I Experimental)/I Control] × 100 where “I Control” represents the infection index of untreated cells, and “I Experimental” represents the infection index of cells treated with test compounds. The effects of the compounds on parasite growth are expressed as IC50 values derived from three independent experiments.

Bounds are passed on as bounds.

On to `O=C(N/N=C/C=C/c1ccccc1)c1cccc(O)c1` [Compound 2e, (E)-N′-(Cinnamylidene)-3-hydroxybenzoylhydrazide], for which the melting point lay within 249 to 250 °C. This molecule also yielded an IC50 in data set [1] of over 49.6 µM. The same molecule yielded an IC50 in data set [2] (Leishmania major) of over 49.6 µM. In data set [3], this molecule yielded an IC50 of 46.2 ± 6.4 µM. In data set [4], this molecule returned an IC50 of over 49.6 µM. Besides, in data set [5], the “activity against T. gondii (in words)” value is “inactive” and the IC50 was over 49.6 µM.

Regarding `CN(C)c1ccc(/C=C/C=N/NC(=O)c2cccc(O)c2)cc1` [Compound 2f, (E)-N′-(4-Dimethylaminocinnamylidene)-3-hydroxybenzoylhydrazide], the melting point fell in the range of 257 to 258 °C. The same molecule displayed a concentration for half-maximal inhibition (IC50) in data set [1] of over 42.7 µM. The IC50 in data set [2] (Leishmania major) is over 42.7 µM. In data set [3], this molecule gave an IC50 of 40.1 ± 6.8 µM. The same molecule displayed an IC50 in data set [4] of over 42.7 µM. In data set [5], the “activity against T. gondii (in words)” value was “inactive” and the IC50 is over 42.7 µM.

Molecule `CN(C)c1ccc(/C=C/C=N/NC(=O)c2ccccc2F)cc1` [Compound 2h, (E)-N′-(4-Dimethylaminocinnamylidene)-2-fluorobenzoylhydrazide] yielded a melting point of 205 to 206 °C. This molecule also registered a concentration for half-maximal inhibition (IC50) in data set [1] of over 64.2 µM. The molecule also displayed a 50% inhibitory concentration (IC50) in data set [2] (Leishmania major) of over 64.2 µM. Further, the IC50 in data set [3] stood at 54.1 ± 9.1 µM. Besides, in data set [4], the IC50 was over 64.2 µM. Further, in data set [5], half-maximal inhibition (IC50) required 55.2 ± 9.7 µM and the “SI = selectivity index (Vero/T. gondii)” value was 0.98.

Regarding `O=C(N/N=C/C=C/c1ccccc1)c1cccc(F)c1` [Compound 2i, (E)-N′-(Cinnamylidene)-3-fluorobenzoylhydrazide], the melting point was 205 to 206 °C. The molecule further returned an IC50 in data set [1] of over 49.2 µM. For the same molecule, the IC50 in data set [2] (Leishmania major) is over 49.2 µM. The molecule also came in with a half-maximal inhibitory concentration (IC50) in data set [3] of 44 ± 6.7 µM. In data set [4], this molecule returned a concentration for half-maximal inhibition (IC50) of over 49.2 µM. For the same molecule, in data set [5], the IC50 was found to be 39.1 ± 6.4 µM and the “SI = selectivity index (Vero/T. gondii)” value was determined as 1.1.

In turn, `CN(C)c1ccc(/C=C/C=N/NC(=O)c2cccc(F)c2)cc1` [Compound 2j, (E)-N′-(4-Dimethylaminocinnamylidene)-3-fluorobenzoylhydrazide] yielded a melting point of 208 °C. This molecule also gave a half-inhibitory concentration (IC50) in data set [1] of over 42.4 µM. Further, the IC50 in data set [2] (Leishmania major) was over 42.4 µM. In addition, in data set [3], the half-inhibitory concentration (IC50) is over 42.4 µM. Besides, the IC50 in data set [4] is over 42.4 µM. Moreover, the IC50 in data set [5] was over 42.4 µM.

`CN(C)c1ccc(/C=C/C=N/NC(=O)c2cccc(Cl)c2)cc1` [Compound 2k, (E)-N′-(4-Dimethylaminocinnamylidene)-3-chlorobenzoylhydrazide] gave a melting point of 210 °C. For the same molecule, in data set [1], the IC50 is over 40.3 µM. The IC50 in data set [2] (Leishmania major) was over 40.3 µM. The half-maximal inhibitory concentration (IC50) in data set [3] is over 40.3 µM. The IC50 in data set [4] is over 40.3 µM. Further, the IC50 in data set [5] is over 40.3 µM.

`CC(C)Cc1ccc(CC(C)/C=N/NC(=O)c2ccccc2O)cc1` (stereo not drawn) [Compound 3b, N′-2-Methyl-3-[4-(2-methylpropyl)phenyl]propanylidene-2-hydroxybenzoylhydrazide]: the melting point was in the range of 160 to 161 °C. The half-maximal inhibitory concentration (IC50) in data set [1] was found to be 58.6 ± 8.6 µM. The 50% inhibitory concentration (IC50) in data set [2] (Leishmania major) is over 59.1 µM. The 50% inhibitory concentration (IC50) in data set [3] came to 24.6 ± 3.3 µM. In data set [4], this molecule had a half-maximal inhibitory concentration (IC50) of over 59.1 µM. Also, in data set [5], the concentration for half-maximal inhibition (IC50) came to 13.7 ± 2.2 µM and the “SI = selectivity index (Vero/T. gondii)” value came to 1.8.

`CC(C)Cc1ccc(CC(C)/C=N/NC(=O)c2cccc(O)c2)cc1` (stereo not drawn) [Compound 3c, N′-2-Methyl-3-[4-(2-methylpropyl)phenyl]propanylidene-3-hydroxybenzoylhydrazide] had a melting point of 182 to 183 °C. The molecule also had an IC50 in data set [1] of over 59.1 µM. Also, the concentration for half-maximal inhibition (IC50) in data set [2] (Leishmania major) is over 59.1 µM. This molecule yielded an IC50 in data set [3] of over 59.1 µM. The concentration for half-maximal inhibition (IC50) in data set [4] was over 59.1 µM. Moreover, the IC50 in data set [5] was 55.3 ± 9.4 µM.

In turn, `CC(C)Cc1ccc(CC(C)/C=N/NC(=O)c2ccccc2F)cc1` (stereo not drawn) [Compound 3d, N′-2-Methyl-3-[4-(2-methylpropyl)phenyl]propanylidene-2-fluorobenzoylhydrazide] came in with a melting point of 82 to 83 °C. The molecule also displayed a concentration for half-maximal inhibition (IC50) in data set [1] of over 58.8 µM. In data set [2] (Leishmania major), this molecule showed an IC50 of over 58.8 µM. This molecule came in with a half-inhibitory concentration (IC50) in data set [3] of 56.1 ± 10.4 µM. This molecule also had an IC50 in data set [4] of over 58.8 µM. In data set [5], the 50% inhibitory concentration (IC50) worked out at 46.3 ± 5.5 µM and the “SI = selectivity index (Vero/T. gondii)” value worked out at 1.2.

As for `CC(C)c1cccc(C(C)C/C=N/NC(=O)c2cccc(Cl)c2)c1` (stereo not drawn) [Compound 4f, N′-3-(3-Isopropylphenyl)butanylidene-3-chlorobenzoylhydrazide], the IC50 in data set [1] is over 58.3 µM; in data set [2], 27.9 ± 4.2 µM; in data set [2] (Leishmania major) it was under 30 µM; in data set [3] it was 57.9 ± 11 µM; in data set [4] it was over 58.3 µM; in data set [5], 47.5 ± 7.3 µM. Besides, the “SI (promastigotes) = selectivity index (macrophages/L. major promastigotes)” value in data set [2] is listed as over 2.1. The “SI = selectivity index (Vero/T. gondii)” value in data set [5] turned out to be 1.2.

In the case of `CC(C)c1cccc(C(C)C/C=N/NC(=O)c2ccncc2)c1` (stereo not drawn) [Compound 4g, N′-3-(3-Isopropylphenyl)butanylidene-isonicotinoylhydrazide], the IC50 is over 64.6 µM in data set [1]; 54.6 ± 9 µM in data set [2] (Leishmania major); over 64.6 µM in data set [3]; over 64.6 µM in data set [4]; over 64.6 µM in data set [5]. Moreover, the “SI (promastigotes) = selectivity index (macrophages/L. major promastigotes)” value in data set [2] is given as over 1.2.

On to `CC(C)c1cccc(C(C)CC=O)c1` (stereo not drawn) [Florhydral^TM, 3-(3-isopropylphenyl)butanal, reference compound], for which the IC50 in data set [1] was over 105 µM; in data set [2] (Leishmania major), over 105 µM; in data set [3], 99.1 ± 18.4 µM; in data set [4] it was over 105 µM; in data set [5], over 105 µM.

For `CC(C)Cc1ccc(CC(C)C=O)cc1` (stereo not drawn) [Silvial^TM, 2-methyl-3-[4-(2-methylpropyl)phenyl]propanal, reference compound], the IC50 in data set [1] is over 97.9 µM; in data set [2] (Leishmania major), over 97.9 µM; in data set [3], over 97.9 µM; in data set [4] it was over 97.9 µM; in data set [5] it was 90.1 ± 15.2 µM.

In general, IC50 refers to the concentration needed to halve the response being measured. The term melting point denotes the temperature of the solid-liquid transition.
